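Compound exposure: 48 hours, 5 concentrations, 96-well plates. At the TGI there is no net growth.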
Assays:
Assay in all cases: NCI-60 cell line screen, 48 h
ACHN renal = tested on: ACHN renal
CAKI-1 renal = tested on: CAKI-1 renal
CCRF-CEM leukemia = tested on: CCRF-CEM leukemia
K-562 leukemia = tested on: K-562 leukemia
MDA-MB-231 breast = tested on: MDA-MB-231 breast
MOLT-4 leukemia = tested on: MOLT-4 leukemia
NCI-H522 lung = tested on: NCI-H522 lung
NCI/ADR-RES ovarian = tested on: NCI/ADR-RES ovarian
OVCAR-5 ovarian = tested on: OVCAR-5 ovarian
RXF 393 renal = tested on: RXF 393 renal
SF-268 CNS = tested on: SF-268 CNS
SF-295 CNS = tested on: SF-295 CNS
SF-539 CNS = tested on: SF-539 CNS
SN12C renal = tested on: SN12C renal
SNB-19 CNS = tested on: SNB-19 CNS
COLO 205 colon = tested on: COLO 205 colon
HCT-116 colon = tested on: HCT-116 colon
M14 melanoma = tested on: M14 melanoma
MDA-N = tested on: MDA-N
UO-31 renal = tested on: UO-31 renal

SMILES	TGI (ACHN renal)	TGI (CAKI-1 renal)	TGI (CCRF-CEM leukemia)	TGI (K-562 leukemia)	TGI (MDA-MB-231 breast)	TGI (MOLT-4 leukemia)	TGI (NCI-H522 lung)	TGI (NCI/ADR-RES ovarian)	TGI (OVCAR-5 ovarian)	TGI (RXF 393 renal)	TGI (SF-268 CNS)	TGI (SF-295 CNS)	TGI (SF-539 CNS)	TGI (SN12C renal)	TGI (SNB-19 CNS)	TGI (COLO 205 colon)	TGI (HCT-116 colon)	TGI (M14 melanoma)	TGI (MDA-N)	TGI (UO-31 renal)
CCCC(=O)Nc1cc(/C=C/C(=O)N2CC(CCl)c3c2cc(O)c2[nH]cc(C)c32)n(C)c1 (stereo not drawn)	< 2.5e-05 µM	< 2.5e-05 µM	0.000155 µM	> 0.25 µM	0.0344 µM	0.0121 µM	< 2.5e-05 µM	0.00372 µM	0.0286 µM	< 2.5e-05 µM	< 2.5e-05 µM	2.98e-05 µM	< 2.5e-05 µM	0.000528 µM	0.00608 µM	–	–	–	–	–
Oc1ccc(-c2nc3ccc(Cl)cc3s2)cc1	> 100 µM	36.5 µM	24.4 µM	> 100 µM	45.5 µM	> 100 µM	31.7 µM	57.1 µM	33 µM	44 µM	33.8 µM	34.1 µM	34.7 µM	35.7 µM	40.4 µM	32.3 µM	29.5 µM	> 100 µM	37.6 µM	27.8 µM
CC1(C)OCC=CCO1	> 100 µM	> 100 µM	> 100 µM	> 100 µM	–	> 100 µM	> 100 µM	> 100 µM	> 100 µM	> 100 µM	> 100 µM	> 100 µM	> 100 µM	> 100 µM	> 100 µM	> 100 µM	> 100 µM	> 100 µM	> 100 µM	> 100 µM
COc1cc(C(O)(CC#N)c2cc3c(cc2Br)OCO3)cc(OC)c1OC (stereo not drawn)	> 100 µM	75.8 µM	> 100 µM	> 100 µM	54.5 µM	> 100 µM	–	> 100 µM	> 100 µM	> 100 µM	> 100 µM	> 100 µM	34.9 µM	> 100 µM	76.1 µM	> 100 µM	> 100 µM	50.5 µM	> 100 µM	> 100 µM
